Data as given in PubChem BioAssay AID330 (DTP/NCI, 2004).
Several values for one entry are separate records, joined by “and”; a condition that tells them apart may be missing. Equal values may be shown once. Inconclusive results and toxic doses are left out. Rule for the calls: active = survival T/C of 150% or more; inactive = T/C below 125% in these data.

Tested on: P388 leukemia ip, CD2F1 mice, survival T/C
Test: NCI In Vivo Anticancer Drug Screen. Data for tumor model P388 Leukemia (intraperitoneal) in CD2F1 (CDF1) mice
Details: endpoint: median survival time, higher = longer survival
Method in brief: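 Mice carrying the transplanted tumor received test compound or vehicle. Survival was recorded in each group, and the value is the treated-group measurement divided by that of the vehicle-treated control group.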

[1] = dose: 60.0 mg/kg/injection, schedule: Q01DX005 (ip), vehicle: saline with Tween-80
[2] = dose: 240.0 mg/kg/injection, schedule: Q01DX005 (ip), vehicle: saline with Tween-80
[3] = dose: 100.0 mg/kg/injection, schedule: Q01DX009 (ip), vehicle: saline
[4] = dose: 200.0 mg/kg/injection, schedule: Q01DX009 (ip), vehicle: saline
[5] = dose: 400.0 mg/kg/injection, schedule: Q01DX009 (ip), vehicle: saline
[6] = dose: 50.0 mg/kg/injection, schedule: Q01DX005 (ip), vehicle: Klucel (hydroxypropylcellulose) (HPC)
[7] = dose: 100.0 mg/kg/injection, schedule: Q01DX005 (ip), vehicle: Klucel (hydroxypropylcellulose) (HPC)
[8] = dose: 200.0 mg/kg/injection, schedule: Q01DX005 (ip), vehicle: Klucel (hydroxypropylcellulose) (HPC)
[9] = dose: 120.0 mg/kg/injection, schedule: Q01DX005 (ip), vehicle: saline with Tween-80

Measured: T/C

CN(C)c1ccc([N+](C)(C)Cc2ccc(C[N+](C)(C)c3ccc([N+](C)(C)Cc4ccc(CCl)cc4)cc3)cc2)cc1
inactive: dose: 3.13 mg/kg/injection, schedule: Q01DX001 (ip), vehicle: saline 108 % of control | dose: 6.25 mg/kg/injection, schedule: Q01DX001 (ip), vehicle: saline 112 % of control and 97 % of control

CCCCCCCC(Nc1nncs1)Nc1nncs1
inactive: dose: 15.0 mg/kg/injection, schedule: Q01DX005 (ip), vehicle: saline with Tween-80 101 % of control | dose: 30.0 mg/kg/injection, schedule: Q01DX005 (ip), vehicle: saline with Tween-80 92 % of control | [1] 87 % of control and 90 % of control | [2] 91 % of control

Cc1cc(C(=O)NN)c(C#N)c(=O)[nH]1
inactive: [3] 100 % of control | [4] 109 % of control | [5] 90 % of control

C[C@@H]1C(=O)OCC2=C3C[C@@H](CC[C@@]3(C)C=CC2=O)[C@H](C)C(=O)OCC2=C3C[C@H]1CC[C@@]3(C)C=CC2=O
inactive: [6] 100 % of control | [7] 101 % of control | [8] 95 % of control

c1ccc(Cn2c(-c3ccccc3)c[n+]3ccsc23)cc1
inactive: dose: 3.12 mg/kg/injection, schedule: Q01DX009 (ip), vehicle: saline with Tween-80 117 % of control | dose: 6.25 mg/kg/injection, schedule: Q01DX009 (ip), vehicle: saline with Tween-80 115 % of control and 94 % of control | dose: 12.5 mg/kg/injection, schedule: Q01DX009 (ip), vehicle: saline with Tween-80 108 % of control and 117 % of control

CC1=C(CO)C(=O)OC(C(C)C2CCC3C4CC5OC56C(O)C(N5CCCC5)CC(=O)C6(C)C4CCC23C)C1 (centres undefined)
inactive: dose: 8.75 mg/kg/injection, schedule: Q01DX005 (ip), vehicle: Klucel (hydroxypropylcellulose) (HPC) 94 % of control | dose: 17.5 mg/kg/injection, schedule: Q01DX005 (ip), vehicle: Klucel (hydroxypropylcellulose) (HPC) 97 % of control | dose: 35.0 mg/kg/injection, schedule: Q01DX005 (ip), vehicle: Klucel (hydroxypropylcellulose) (HPC) 99 % of control | dose: 70.0 mg/kg/injection, schedule: Q01DX005 (ip), vehicle: Klucel (hydroxypropylcellulose) (HPC) 111 % of control | dose: 140.0 mg/kg/injection, schedule: Q01DX005 (ip), vehicle: Klucel (hydroxypropylcellulose) (HPC) 103 % of control

C=C1C(O)C2OC(=O)C(=C)C2C(OC(=O)/C(C)=C/C)CC2(C)OC2C2OC12 (centres undefined)
inactive: dose: 4.0 mg/kg/injection, schedule: Q01DX005 (ip), vehicle: Klucel (hydroxypropylcellulose) (HPC) 96 % of control | dose: 8.0 mg/kg/injection, schedule: Q01DX005 (ip), vehicle: Klucel (hydroxypropylcellulose) (HPC) 103 % of control | dose: 16.0 mg/kg/injection, schedule: Q01DX005 (ip), vehicle: Klucel (hydroxypropylcellulose) (HPC) 100 % of control | dose: 32.0 mg/kg/injection, schedule: Q01DX005 (ip), vehicle: Klucel (hydroxypropylcellulose) (HPC) 116 % of control | [6] 115 % of control | dose: 64.0 mg/kg/injection, schedule: Q01DX005 (ip), vehicle: Klucel (hydroxypropylcellulose) (HPC) 116 % of control | [7] 109 % of control | [8] 103 % of control

O=C(O)/C=C/c1c[nH]c(=O)[nH]c1=O
inactive: [1] 107 % of control | [9] 100 % of control | [2] 89 % of control

CC1(C)OC(=O)C=C[C@]2(C)[C@H]3CC[C@@]4(C)[C@H](c5ccoc5)C[C@H]5O[C@]54[C@]3(C)C(=O)[C@H](O)[C@@H]12
inactive: dose: 1.25 mg/kg/injection, schedule: Q04DX003 (ip), vehicle: Klucel (hydroxypropylcellulose) (HPC) 91 % of control | dose: 2.5 mg/kg/injection, schedule: Q04DX003 (ip), vehicle: Klucel (hydroxypropylcellulose) (HPC) 96 % of control | dose: 5.0 mg/kg/injection, schedule: Q04DX003 (ip), vehicle: Klucel (hydroxypropylcellulose) (HPC) 94 % of control | dose: 10.0 mg/kg/injection, schedule: Q04DX003 (ip), vehicle: Klucel (hydroxypropylcellulose) (HPC) 98 % of control

CN1CCN(CCCN2c3ccccc3Sc3cc(N4c5ccccc5Sc5ccc(C(F)(F)F)cc54)c(C(F)(F)F)cc32)CC1
inactive: dose: 100.0 mg/kg/injection, schedule: Q04DX003 (ip), vehicle: Klucel (hydroxypropylcellulose) (HPC) 95 % of control | dose: 200.0 mg/kg/injection, schedule: Q04DX003 (ip), vehicle: Klucel (hydroxypropylcellulose) (HPC) 95 % of control | dose: 400.0 mg/kg/injection, schedule: Q04DX003 (ip), vehicle: Klucel (hydroxypropylcellulose) (HPC) 107 % of control

Cc1ccc(S(=O)(=O)NNC(=O)CCn2[nH]c(=O)c(Cl)c(Cl)c2=O)cc1
inactive: [1] 99 % of control | [9] 103 % of control | [2] 98 % of control

CCN(CC)CCCC(C)Nc1ncnc2cc(Cl)ccc12 (centres undefined)
inactive: dose: 50.0 mg/kg/injection, schedule: Q01DX005 (ip), vehicle: saline with Tween-80 97 % of control | dose: 100.0 mg/kg/injection, schedule: Q01DX005 (ip), vehicle: saline with Tween-80 94 % of control | dose: 200.0 mg/kg/injection, schedule: Q01DX005 (ip), vehicle: saline with Tween-80 94 % of control

CCCCN(CCCC)CC(O)c1c(OC)c2cc(Cl)ccc2c2ccc(Cl)cc12 (centres undefined)
inactive: dose: 25.0 mg/kg/injection, schedule: Q01DX009 (ip), vehicle: saline with Tween-80 94 % of control | dose: 50.0 mg/kg/injection, schedule: Q01DX009 (ip), vehicle: saline with Tween-80 100 % of control

O=C(N/N=C/c1ccccc1O)c1cccc([N+](=O)[O-])c1
inactive: [3] 99 % of control | [4] 100 % of control | [5] 91 % of control

CCNCC(=O)Nc1ccc(C2NC(=O)C(C)(C)c3ccccc32)cc1 (centres undefined)
inactive: dose: 50.0 mg/kg/injection, schedule: Q01DX009 (ip), vehicle: saline 99 % of control | [3] 101 % of control | [4] 97 % of control

O=C(c1ccc(Cl)cc1)n1c(Cl)c(/C=N\Nc2ccc([N+](=O)[O-])cc2[N+](=O)[O-])c2ccccc21
inactive: dose: 12.5 mg/kg/injection, schedule: Q01DX001 (ip), vehicle: Klucel (hydroxypropylcellulose) (HPC) 92 % of control | dose: 25.0 mg/kg/injection, schedule: Q01DX001 (ip), vehicle: Klucel (hydroxypropylcellulose) (HPC) 96 % of control | dose: 50.0 mg/kg/injection, schedule: Q01DX001 (ip), vehicle: Klucel (hydroxypropylcellulose) (HPC) 88 % of control

CC(CN(C)C)C(=O)/C=C/c1ccc(Cl)cc1 (centres undefined)
inactive: dose: 60.0 mg/kg/injection, schedule: Q01DX005 (ip), vehicle: saline 118 % of control | dose: 120.0 mg/kg/injection, schedule: Q01DX005 (ip), vehicle: saline 122 % of control

C/C(=N\N=C(N)N)c1cnc(N)nc1C
inactive: dose: 60.0 mg/kg/injection, schedule: Q01DX005 (ip), vehicle: Klucel (hydroxypropylcellulose) (HPC) 98 % of control | dose: 120.0 mg/kg/injection, schedule: Q01DX005 (ip), vehicle: Klucel (hydroxypropylcellulose) (HPC) 97 % of control | dose: 240.0 mg/kg/injection, schedule: Q01DX005 (ip), vehicle: Klucel (hydroxypropylcellulose) (HPC) 100 % of control

O=C1OCCOCCOCCOCCOC(=O)c2cccc1c2
inactive: dose: 100.0 mg/kg/injection, schedule: Q04DX003 (ip), vehicle: suspension in saline 100 % of control | dose: 200.0 mg/kg/injection, schedule: Q04DX003 (ip), vehicle: suspension in saline 104 % of control | dose: 400.0 mg/kg/injection, schedule: Q04DX003 (ip), vehicle: suspension in saline 99 % of control

CCOC(=O)NN(C(=O)OCC)C(C)(C)C(C)=O
inactive: dose: 100.0 mg/kg/injection, schedule: Q01DX001 (ip), vehicle: saline 100 % of control | dose: 200.0 mg/kg/injection, schedule: Q01DX001 (ip), vehicle: saline 100 % of control and 106 % of control | dose: 400.0 mg/kg/injection, schedule: Q01DX001 (ip), vehicle: saline 100 % of control and 108 % of control

O=CNc1cc(NC=O)ncn1
inactive: dose: 15.0 mg/kg/injection, schedule: Q01DX009 (ip), vehicle: saline with Tween-80 99 % of control | dose: 30.0 mg/kg/injection, schedule: Q01DX009 (ip), vehicle: saline with Tween-80 97 % of control | dose: 60.0 mg/kg/injection, schedule: Q01DX009 (ip), vehicle: saline with Tween-80 103 % of control
